According to US9023857B2, “Substituted 6-(2-aminobenzylamino)purine derivatives, their use as medicaments and preparations containing these compounds” (Univerzita Palackeho V Olomouci, priority 2009, dated 2015):

How the values were obtained:
[1] = system: p53-responsive reporter pRGCΔfoslacZ in human melanoma cell line Arn8; assay: p53-dependent transcriptional activity, β-galactosidase reporter in Arn8 cells
[2] = system: human T-lymphoblastoid leukaemic cell line CEM; assay: In vitro cytotoxic activity (Calcein AM, 72 hours), CEM; settings: read-out: Cytotoxicity IC50 CEM
VV = type: cell-based, Vaccinia virus strain WR; settings: Vaccinia virus on HFFF
HSV-1-deltaTK = assay: Plaque number reduction assay, HSV-1-deltaTK on HFFF; type: cell-based; settings: HSV-1 thymidine kinase (TK) deletion mutant on HFFF
[3] = system: p53 protein in osteosarcoma cell line HOS (mut p53); assay: p53 protein expression in HOS cells (immunoblotting); type: cell-based, human; settings: HOS (mutant p53), 5 μM, 6, 12 and 24 hrs
Experimental: (§1) (a) DO-1, DO-2 and 1801 monoclonal antibodies recognise the N-terminal region of p53 protein, monoclonal antibodies DO-11 and DO-12 recognise different epitopes in the core domain of p53 protein, monoclonal antibodies Bp53-10 and Pab421 recognise the C-terminal region of p53 protein. (b) Monoclonal antibody 118 recognises p21^WAF1.
For direct immunoblotting, total cellular protein lysates were prepared by harvesting cells in hot Laemmli electrophoresis sample buffer. Proteins were then separated by SDS-polyacrylamide gel electrophoresis (SDS-PAGE) on 10% gel and transferred onto a nitrocellulose membrane in Bio.Rad Mini Trans-Blott Electrophoretic Transfer Cell for 2 hrs at 4° C. applying 150 mA in transfer buffer ([…], 190 mM glycine and 20% methanol). Prestained molecular weight markers (Bio-Rad) were run in parallel. […]
First, we determined appropriate concentration of 103 and 105 for our experiments. The MCF-7 (wt p53) cells were treated for 12 hrs with increasing concentrations of 105 ranging from 1 to 100 μM and analysed for p53 protein expression using monoclonal antibody DO-1 (FIG. 3A). […] We analysed the expression of p53 protein in MCF-7 (wt p53), BT549 (mut p53) and BT474 (mut p53) breast cancer cell lines, in HT29 (mut p53) colorectal cancer cell line and in ostaosarcoma cell line HOS (mut p53). […]

MV = MV syncytium reduction assay in B95a cells; type: cell-based, Measles virus wildtype strain WTFb
[4] = system: p53 protein in MCF-7 cells expressing wild-type p53; assay: Induction of p53 protein in MCF-7 cells (immunoblotting); type: cell-based, human
Experimental: as §1
For direct immunoblotting, total cellular protein lysates were prepared by harvesting cells in hot Laemmli electrophoresis sample buffer. Proteins were then separated by SDS-polyacrylamide gel electrophoresis (SDS-PAGE) on 10% gel and transferred onto a nitrocellulose membrane in Bio.Rad Mini Trans-Blott Electrophoretic Transfer Cell for 2 hrs at 4° C. applying 150 mA in transfer buffer ([…], 190 mM glycine and 20% methanol). Prestained molecular weight markers (Bio-Rad) were run in parallel. The blotted membranes were blocked in 5% milk and 0.1% Tween 20 in PBS for 2 hrs and probed overnight with monoclonal antibodies. After washing 3 times in PBS plus 0.1% Tween 20, peroxidase conjugated rabbit anti-mouse immunoglobulin antiserum (Dako, Denmark) diluted 1:1000 was used as the secondary antibody. To visualise peroxidase activity, ECL reagents from […] were used according to the manufacturer instructions.
First, we determined appropriate concentration of 103 and 105 for our experiments. The MCF-7 (wt p53) cells were treated for 12 hrs with increasing concentrations of 105 ranging from 1 to 100 μM and analysed for p53 protein expression using monoclonal antibody DO-1 (FIG. 3A). […] As shown at FIG. 3C the level of protein expression induced by 5 μM 105 was not substantially different from expression induced by 50 μM concentration was selected for further experiments. Second, the periods of time 6, 12 and 24 hrs were chosen, since the level of protein expression reached a steady state. We analysed the expression of p53 protein in MCF-7 (wt p53), BT549 (mut p53) and BT474 (mut p53) breast cancer cell lines, in HT29 (mut p53) colorectal cancer cell line and in ostaosarcoma cell line HOS (mut p53). […] No induction of p53 was observed following exposure of BT549 and HOS cell lines, expressing mutant p53, to 5 μM 105 for 6, 12 and 24 hrs. No correlation was observed between the sensitivity of cell lines to 105 and the presence of wild-type or mutant p53.

[5] = system: CMV promoter (plasmid pCMV-lacZ); assay: β-galactosidase expression from transiently transfected pCMV-lacZ in MCF-7 and T47D; settings: transiently transfected MCF-7 and T47D (FIG. 9)

CCC(CO)Nc1nc(NCc2ccccc2N)c2ncn(C(C)C)c2n1 (stereo not shown) [Compound 105, 2-({6-[(2-aminobenzyl)amino]-9-isopropyl-9H-purin-2-yl}amino)butan-1-ol]
blue-coloured cells (β-galactosidase activity, X-gal substrate) ([1]; Arn8 cells, 5 μM): about 25%
total β-galactosidase activity, colorimetric assay ([1]; Arn8 cells, 12 and 24 hours after treatment): strong activity
Max. β-Gal. Activtity Conc. ([1]; concentration inducing maximum of β-galactosidase activity (p53-responsive reporter)): 16 µM
IC50 [2]: 4.5 µM
inhibition of virus replication (in words) (VV): inhibited equally well
inhibition of virus replication (in words) (HSV-1-deltaTK): remained sensitive
induction of p53 [3]: No induction
inhibition of virus replication (in words) (MV): ineffective
tumor suppressor p53 level ([4]; MCF7 cells treated for 24 h, immunoblot (FIG. 2)): Induction
concentration shown to affect the level of p53 protein ([4]; MCF-7 (wt p53), 12 hrs, antibody DO-1): 2 to 5 µM
accumulation of wild-type p53 ([4]; MCF-7, 5 μM, 6, 12 and 24 hrs): significant accumulation
time at which induction of p53 protein was apparent ([4]; MCF-7 cells): 4 h
expression from CMV promoter (β-galactosidase activity) [5]: inhibited expression
